Results from patent US20260215430A1, “HERBICIDAL COMPOSITIONS” (SYNGENTA CROP PROTECTION AG, priority 2022, published 2026).

Experiments:
CHEAL [1] = test: Post-emergence study L-GLU+BIR, CHEAL control; assay type: in vivo, Chenopodium Album L.; conditions: 9 days after treatment
Text: (§1) In a post-emergence study of AMPA, CHEAL, and Setaria faberi (SETFA) applications were done to 2 to 4-inch weeds with a spray volume of 15 gallons/acre. Treatments applied are described below, and further included an adjuvant.
The results of CHEAL control with L-GLU+BIR (bicyclopyrone) mixtures at 9 days after treatment are summarized in the below matrix, where bolded values represent synergy as calculated by Colby.

AMAPA [2] = test: Post-emergence study L-GLU+BIR, AMAPA control; assay type: in vivo, Amaranthus palmeri; conditions: 9 days after treatment
Text: as §1
The results of AMAPA control with L-GLU+BIR (bicyclopyrone) mixtures at 9 days after treatment are summarized in the below matrix, where bolded values represent synergy as calculated by Colby.

SETFA = test: Post-emergence study L-GLU+BIR, SETFA control; assay type: in vivo, Setaria faberi
Text: as §1
The results of SETFA control with L-GLU+BIR (bicyclopyrone) mixtures at 7 and 14 days after treatment, respectively, are summarized in the below matrix, where bolded values represent synergy as calculated by Colby.

All weeds = test: Postemergence field study on natural weed populations, all weeds; assay type: in vivo; conditions: 28-31 DAA
ABUTH = test: Post-emergence study L-GLU+MST, ABUTH control; assay type: in vivo, Velvet Leaf (Abutilon theophrast); conditions: 7 days after treatment
Text: (§2) In a post-emergence study of AMPA, CHEAL, and ABUTH (Velvet Leaf (Abutilon theophrast)) applications were done to 2 to 4-inch weeds with a spray volume of 15 gallons/acre. Treatments applied are described below, and further included an adjuvant.
The results of ABUTH control with L-GLU+MST mixtures at 7 days after treatment are summarized in the below matrix, where bolded values represent synergy as calculated by Colby.

AMAPA [3] = test: Post-emergence study L-GLU+MST, AMAPA control; assay type: in vivo, Amaranthus palmeri; conditions: 7 days after treatment
Text: as §2
The results of AMAPA control with L-GLU+MST mixtures at 7 days after treatment are summarized in the below matrix, where bolded values represent synergy as calculated by Colby.

Grasses = test: Postemergence field study on natural weed populations, grasses; assay type: in vivo; conditions: 28-31 DAA
CHEAL [4] = test: Post-emergence study L-GLU+MST, CHEAL control; assay type: in vivo, Chenopodium Album L.; conditions: 7 days after treatment
Text: as §2
The results of CHEAL control with L-GLU+MST mixtures at 7 days after treatment are summarized in the below matrix, where bolded values represent synergy as calculated by Colby.

[5] = system: SSBL (AMAPA, CHEAL, AMBEL); test: Postemergence field study on natural weed populations, small seeded broadleaf; assay type: in vivo; conditions: 28-31 DAA
Experimental: In a postemergence field study on a natural weed populations. Herbicides were applied to 4-5″ weeds and efficacy was evaluated at 14 and 28-35 days after application. Rates were in g ai/ha. Data shown was small seeded broadleaf (SSBL; AMPA=Amaranthus palmeri; CHEAL=Chenopodium Album L.; AMBEL=Ambrosia Artemisiifolia L.) control 28-31 DAA. 100% was completely dead and 0% was no plant response.

For bicyclopyrone, the “% Control CHEAL” value (CHEAL [1]; BIR 1.56 g ai/ha alone) was 58%, the “% Control CHEAL” value (CHEAL [1]; BIR 3.13 g ai/ha alone) was 75% and the “% Control CHEAL” value (CHEAL [1]; BIR 6.25 g ai/ha alone) was 88%. For the same compound, the “% Control CHEAL” value (CHEAL [1]; BIR 12.5 g ai/ha alone) was 92%, the “% Control CHEAL” value (CHEAL [1]; BIR 25 g ai/ha alone) was 96% and the “% Control CHEAL” value (CHEAL [1]; BIR 50 g ai/ha alone) was 97%. For the same compound, the “% Control AMAPA” value (AMAPA [2]; BIR 1.56 g ai/ha alone) was 27%, the “% Control AMAPA” value (AMAPA [2]; BIR 3.13 g ai/ha alone) was 37% and the “% Control AMAPA” value (AMAPA [2]; BIR 6.25 g ai/ha alone) was 48%. For the same compound, the “% Control AMAPA” value (AMAPA [2]; BIR 12.5 g ai/ha alone) was 53%, the “% Control AMAPA” value (AMAPA [2]; BIR 25 g ai/ha alone) was 80% and the “% Control AMAPA” value (AMAPA [2]; BIR 50 g ai/ha alone) was 90%. For the same compound, the “% Control SETFA” value (SETFA; BIR 3.13 g ai/ha alone, 7 Days after Treatment) was 28%, the “% Control SETFA” value (SETFA; BIR 3.13 g ai/ha alone, 14 Days after Treatment) was 23% and the “% Control SETFA” value (SETFA; BIR 6.25 g ai/ha alone, 7 Days after Treatment) was 35%. For the same compound, the “% Control SETFA” value (SETFA; BIR 6.25 g ai/ha alone, 14 Days after Treatment) was 32%, the “% Control SETFA” value (SETFA; BIR 12.5 g ai/ha alone, 7 Days after Treatment) was 62% and the “% Control SETFA” value (SETFA; BIR 12.5 g ai/ha alone, 14 Days after Treatment) was 45%. The “% Control SETFA” value (SETFA; BIR 25 g ai/ha alone, 7 Days after Treatment) was 73%, the “% Control SETFA” value (SETFA; BIR 25 g ai/ha alone, 14 Days after Treatment) was 58% and the “% Control SETFA” value (SETFA; BIR 50 g ai/ha alone, 7 Days after Treatment) was 78%. For the same compound, the “% Control SETFA” value (SETFA; BIR 50 g ai/ha alone, 14 Days after Treatment) was 75%, the “% Control SETFA” value (SETFA; BIR 100 g ai/ha alone, 7 Days after Treatment) was 77% and the “% Control SETFA” value (SETFA; BIR 100 g ai/ha alone, 14 Days after Treatment) was 90%.
For `CP(=O)(O)CC[C@H](N)C(=O)O` [L-glufosinate], the “control, All weeds” value (All weeds; L-glufosinate 328 g/ha) was 70%, the “% Control ABUTH” value (ABUTH; L-GLU 5 g ai/ha alone) was 2% and the “% Control ABUTH” value (ABUTH; L-GLU 10 g ai/ha alone) was 8%. For the same compound, the “% Control ABUTH” value (ABUTH; L-GLU 30 g ai/ha alone) was 38%, the “% Control ABUTH” value (ABUTH; L-GLU 60 g ai/ha alone) was 67% and the “% Control ABUTH” value (ABUTH; L-GLU 120 g ai/ha alone) was 87%. The “% Control CHEAL” value (CHEAL [1]; L-GLU 5 g ai/ha alone) was 0%, the “% Control CHEAL” value (CHEAL [1]; L-GLU 10 g ai/ha alone) was 13% and the “% Control CHEAL” value (CHEAL [1]; L-GLU 30 g ai/ha alone) was 38%. For the same compound, the “% Control CHEAL” value (CHEAL [1]; L-GLU 60 g ai/ha alone) was 88%, the “% Control CHEAL” value (CHEAL [1]; L-GLU 120 g ai/ha alone) was 100% and the “% Control AMAPA” value (AMAPA [3]; L-GLU 5 g ai/ha alone) was 27%. The “% Control AMAPA” value (AMAPA [3]; L-GLU 10 g ai/ha alone) was 33%, the “% Control AMAPA” value (AMAPA [3]; L-GLU 30 g ai/ha alone) was 83% and the “% Control AMAPA” value (AMAPA [3]; L-GLU 60 g ai/ha alone) was 97%. The “% Control AMAPA” value (AMAPA [3]; L-GLU 120 g ai/ha alone) was 100%, the “% Control AMAPA” value (AMAPA [2]; L-GLU 5 g ai/ha alone) was 17% and the “% Control AMAPA” value (AMAPA [2]; L-GLU 10 g ai/ha alone) was 23%. The “% Control AMAPA” value (AMAPA [2]; L-GLU 30 g ai/ha alone) was 57%, the “% Control AMAPA” value (AMAPA [2]; L-GLU 60 g ai/ha alone) was 87% and the “% Control AMAPA” value (AMAPA [2]; L-GLU 120 g ai/ha alone) was 93%. The “% Control SETFA” value (SETFA; L-GLU 5 g ai/ha alone, 14 Days after Treatment) was 10%, the “% Control SETFA” value (SETFA; L-GLU 5 g ai/ha alone, 7 days after treatment) was 13% and the “% Control SETFA” value (SETFA; L-GLU 10 g ai/ha alone, 14 Days after Treatment) was 35%. The “% Control SETFA” value (SETFA; L-GLU 10 g ai/ha alone, 7 days after treatment) was 48%, the “% Control SETFA” value (SETFA; L-GLU 30 g ai/ha alone, 14 Days after Treatment) was 65% and the “% Control SETFA” value (SETFA; L-GLU 30 g ai/ha alone, 7 days after treatment) was 85%. For the same compound, the “% Control SETFA” value (SETFA; L-GLU 60 g ai/ha alone, 14 Days after Treatment) was 89%, the “% Control SETFA” value (SETFA; L-GLU 60 g ai/ha alone, 7 days after treatment) was 95% and the “% Control SETFA” value (SETFA; L-GLU 120 g ai/ha alone, 14 Days after Treatment) was 100%. The “% Control SETFA” value (SETFA; L-GLU 120 g ai/ha alone, 7 days after treatment) was 100%, the “control, Grasses” value (Grasses; L-glufosinate 328 g/ha) was 83% and the “% Control CHEAL” value (CHEAL [4]; L-GLU 5 g ai/ha alone) was 3%. The “% Control CHEAL” value (CHEAL [4]; L-GLU 10 g ai/ha alone) was 8%, the “% Control CHEAL” value (CHEAL [4]; L-GLU 30 g ai/ha alone) was 72% and the “% Control CHEAL” value (CHEAL [4]; L-GLU 60 g ai/ha alone) was 90%. For the same compound, the “% Control CHEAL” value (CHEAL [4]; L-GLU 120 g ai/ha alone) was 90% and the “control, SSBL (AMAPA, CHEAL, AMBEL)” value ([5]; L-glufosinate 328 g/ha) was 55%.
`CS(=O)(=O)c1ccc(C(=O)C2C(=O)CCCC2=O)c([N+](=O)[O-])c1` [Mesotrione] was tested, and the “control, All weeds” value (All weeds; Mesotrione 105 g/ha) was 44%, the “% Control ABUTH” value (ABUTH; MST 1.5 g ai/ha alone) was 85% and the “% Control ABUTH” value (ABUTH; MST 3 g ai/ha alone) was 83%. For the same compound, the “% Control ABUTH” value (ABUTH; MST 6 g ai/ha alone) was 95%, the “% Control ABUTH” value (ABUTH; MST 12 g ai/ha alone) was 92% and the “% Control ABUTH” value (ABUTH; MST 24 g ai/ha alone) was 96%. The “% Control ABUTH” value (ABUTH; MST 60 g ai/ha alone) was 92%, the “% Control AMAPA” value (AMAPA [3]; MST 1.5 g ai/ha alone) was 20% and the “% Control AMAPA” value (AMAPA [3]; MST 3 g ai/ha alone) was 30%. For the same compound, the “% Control AMAPA” value (AMAPA [3]; MST 6 g ai/ha alone) was 37%, the “% Control AMAPA” value (AMAPA [3]; MST 12 g ai/ha alone) was 72% and the “% Control AMAPA” value (AMAPA [3]; MST 24 g ai/ha alone) was 85%. For the same compound, the “% Control AMAPA” value (AMAPA [3]; MST 60 g ai/ha alone) was 85%, the “control, Grasses” value (Grasses; Mesotrione 105 g/ha) was 35% and the “% Control CHEAL” value (CHEAL [4]; MST 1.5 g ai/ha alone) was 78%. For the same compound, the “% Control CHEAL” value (CHEAL [4]; MST 3 g ai/ha alone) was 85%, the “% Control CHEAL” value (CHEAL [4]; MST 6 g ai/ha alone) was 92% and the “% Control CHEAL” value (CHEAL [4]; MST 12 g ai/ha alone) was 93%. The “% Control CHEAL” value (CHEAL [4]; MST 24 g ai/ha alone) was 93%, the “% Control CHEAL” value (CHEAL [4]; MST 60 g ai/ha alone) was 90% and the “control, SSBL (AMAPA, CHEAL, AMBEL)” value ([5]; Mesotrione 105 g/ha) was 26%.
